From ChEMBL document CHEMBL1201862, “PubChem BioAssay data set” (2004)
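Cells were grown in 96-well plates and exposed to each compound for 48 hours at five concentrations; endpoints were interpolated linearly between bracketing concentrations, or set to the highest concentration if not reached. Abbreviation: GI50, concentration required for 50% inhibition of growth.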 The source made the active and inactive calls. Cut-off read from the data, not from the text of the source: active = GI50 up to about 1.1 µM and inactive = higher.

Experiments:
Assay in all cases: inhibition of tumour cell growth, NCI panel, 48 h
MDA-MB-231 = test system: MDA-MB-231
M14 = test system: M14
SK-OV-3 = test system: SK-OV-3
SR = test system: SR
HOP-92 = test system: HOP-92
SNB-19 = test system: SNB-19
SK-MEL-2 = test system: SK-MEL-2
K562 = test system: K562
UO-31 = test system: UO-31
HOP-62 = test system: HOP-62
A549 = test system: A549
SNB-75 = test system: SNB-75
ACHN = test system: ACHN
RXF 393 = test system: RXF 393
HCT-15 = test system: HCT-15
RPMI-8226 = test system: RPMI-8226
NCI-H522 = test system: NCI-H522
KM-20L2 = test system: KM-20L2
DMS-114 = test system: DMS-114

| SMILES | GI50 (MDA-MB-231) | GI50 (M14) | GI50 (SK-OV-3) | GI50 (SR) | GI50 (HOP-92) | GI50 (SNB-19) | GI50 (SK-MEL-2) | GI50 (K562) | GI50 (UO-31) | GI50 (HOP-62) | GI50 (A549) | GI50 (SNB-75) | GI50 (ACHN) | GI50 (RXF 393) | GI50 (HCT-15) [µM] | GI50 (RPMI-8226) | GI50 (NCI-H522) | GI50 (KM-20L2) | GI50 (DMS-114) |
| --- | --- | --- | --- | --- | --- | --- | --- | --- | --- | --- | --- | --- | --- | --- | --- | --- | --- | --- | --- |
| Cc1nc(O)c(Cc2ccccc2O)c(-c2ccccc2)n1 | 98.9 µM (inactive) | > 100 µM (inactive) | > 100 µM (inactive) | > 100 µM (inactive) | > 100 µM (inactive) | > 100 µM (inactive) | > 100 µM (inactive) | > 100 µM (inactive) | > 100 µM (inactive) | > 100 µM (inactive) | > 100 µM (inactive) | 22.4 µM (inactive) | > 100 µM (inactive) | > 100 µM (inactive) | > 100 | > 100 µM (inactive) | > 100 µM (inactive) | – | – |
| CC(=O)NNc1nc(C)c(C(=O)NNC(=O)C(=O)Nc2ccc(Cl)c([N+](=O)[O-])c2)s1 | – | > 100 µM (inactive) | > 100 µM (inactive) | 35.1 µM (inactive) | 43.3 µM (inactive) | > 100 µM (inactive) | > 100 µM (inactive) | 26.2 µM (inactive) | > 100 µM (inactive) | > 100 µM (inactive) | 85.5 µM (inactive) | – | 41.1 µM (inactive) | – | 49.3 | 43.7 µM (inactive) | 26.2 µM (inactive) | > 100 µM (inactive) | 46.9 µM (inactive) |
| CNS(=O)(=O)NNS(=O)(=O)c1ccc(F)cc1 | – | > 100 µM (inactive) | – | > 100 µM (inactive) | – | > 100 µM (inactive) | > 100 µM (inactive) | > 100 µM (inactive) | > 100 µM (inactive) | > 100 µM (inactive) | > 100 µM (inactive) | > 100 µM (inactive) | > 100 µM (inactive) | > 100 µM (inactive) | > 100 | > 100 µM (inactive) | > 100 µM (inactive) | > 100 µM (inactive) | > 100 µM (inactive) |
| CCCCc1ccc(Nc2nc3c(ncn3COCCBr)c(=O)[nH]2)cc1 | > 100 µM (inactive) | > 100 µM (inactive) | > 100 µM (inactive) | 86.3 µM (inactive) | > 100 µM (inactive) | > 100 µM (inactive) | > 100 µM (inactive) | > 100 µM (inactive) | > 100 µM (inactive) | > 100 µM (inactive) | > 100 µM (inactive) | > 100 µM (inactive) | > 100 µM (inactive) | 84.5 µM (inactive) | > 100 | > 100 µM (inactive) | > 100 µM (inactive) | – | – |
| CCOC(=O)c1c(C)n(Cc2ccccc2)c(=O)c2ccccc2c(=O)c2c(=O)ccc(=O)c1=2 | 65 µM (inactive) | 39.1 µM (inactive) | > 100 µM (inactive) | 30.8 µM (inactive) | 14.9 µM (inactive) | > 100 µM (inactive) | > 100 µM (inactive) | 43.3 µM (inactive) | 17.9 µM (inactive) | > 100 µM (inactive) | > 100 µM (inactive) | > 100 µM (inactive) | 30.7 µM (inactive) | 23.8 µM (inactive) | 34.8 | 31.2 µM (inactive) | 23.9 µM (inactive) | – | – |
| Cc1ccc(S(=O)(=O)N/N=C(\C(=O)Nc2cccc([N+](=O)[O-])c2)c2nc3ccc([N+](=O)[O-])cc3nc2O)cc1 | – | > 100 µM (inactive) | > 100 µM (inactive) | 34 µM (inactive) | > 100 µM (inactive) | > 100 µM (inactive) | > 100 µM (inactive) | 7.38 µM (inactive) | 9.33 µM (inactive) | 81.8 µM (inactive) | 31.8 µM (inactive) | – | 13.8 µM (inactive) | > 100 µM (inactive) | 16.3 | 54.7 µM (inactive) | 5.66 µM (inactive) | – | 10.2 µM (inactive) |
| COc1cc(C(C)c2cc3c(cc2OCCNC(=O)COc2cc4c(cc2C(C)c2cc(OC)c(OC)c(OC)c2)OCO4)OCO3)cc(OC)c1OC (configuration not stated) | – | 85.3 µM (inactive) | – | > 100 µM (inactive) | – | > 100 µM (inactive) | > 100 µM (inactive) | 73.1 µM (inactive) | > 100 µM (inactive) | 58.7 µM (inactive) | > 100 µM (inactive) | 3.09 µM (inactive) | 63.2 µM (inactive) | > 100 µM (inactive) | 87.3 | – | 29.5 µM (inactive) | > 100 µM (inactive) | 26.9 µM (inactive) |
| COC(=O)C1=C(C(=O)OC)C2=S(SC3=C2CCCC3)S1 (configuration not stated) | – | 24.8 µM (inactive) | > 100 µM (inactive) | – | 6.05 µM (inactive) | > 100 µM (inactive) | 23.1 µM (inactive) | 4.35 µM (inactive) | 68.1 µM (inactive) | > 100 µM (inactive) | 36.1 µM (inactive) | 12.1 µM (inactive) | 28.1 µM (inactive) | 13.3 µM (inactive) | 13.3 | 3.26 µM (inactive) | 2.2 µM (inactive) | 24.6 µM (inactive) | – |
| CCCN(CCc1ccc(-c2ccccc2)cc1)CCc1ccc2nn[nH]c2c1 | 13.6 µM (inactive) | 4.28 µM (inactive) | 14.2 µM (inactive) | 3.74 µM (inactive) | 5.37 µM (inactive) | 13.1 µM (inactive) | 15.6 µM (inactive) | 2.94 µM (inactive) | 9.31 µM (inactive) | 12.5 µM (inactive) | 13.1 µM (inactive) | 12.3 µM (inactive) | 12.8 µM (inactive) | 12.2 µM (inactive) | 7.76 | 4.52 µM (inactive) | 11.8 µM (inactive) | – | – |
